# Measurements taken from US12398101B2, “Herbicidal 2-azaspiro[3-5]nonane compounds” (SYNGENTA CROP PROTECTION AG, priority 2018, dated 2025).
# Key:
# Assay type in all cases: in vivo
# Details in all cases: 250 g/h, evaluated after 13 days
# Lolium perenne (LOLPE) [1] = experiment: Glasshouse herbicide test, pre-emergence application
# Experimental: (§1) Seeds of a variety of test species are sown in standard soil in pots (Lolium perenne (LOLPE), Setaria faberi (SETFA), Echinochloa crus-galli (ECHCG), Avena fatua (AVEFA)). After cultivation for one day (pre-emergence) or after 8 days cultivation (post-emergence) under controlled conditions in a glasshouse (at 24/16° C., day/night; 14 hours light; 65% humidity), the plants are sprayed with an aqueous spray solution derived from the formulation of the technical active ingredient in acetone/water (50:50) solution containing 0.5% Tween 20 (polyoxyethelyene sorbitan monolaurate, CAS RN 9005-64-5). Compounds are applied at 250 g/h. The test plants are then grown in a glasshouse under controlled conditions in a glasshouse (at 24/16° C., day/night; 14 hours light; 65% humidity) and watered twice daily. After 13 days for pre and post-emergence, the test is evaluated for the percentage damage caused to the plant. The biological activities are shown in the following table on a five point scale (5=80-100%; 4=60-79%; 3=40-59%; 2=20-39%; 1=0-19%).
# Avena fatua (AVEFA) [2] = experiment: as above
# Experimental: as §1
# [3] = system: Echinochloa crus-galli (ECHCG); experiment: as above
# Experimental: as §1
# Setaria faberi (SETFA) [4] = experiment: as above
# Experimental: as §1
# Lolium perenne (LOLPE) [5] = experiment: Glasshouse herbicide test, post-emergence application
# Experimental: as §1
# Avena fatua (AVEFA) [6] = experiment: as above
# Experimental: as §1
# [7] = system: Echinochloa crus-galli (ECHCG); experiment: as above
# Experimental: as §1
# Setaria faberi (SETFA) [8] = experiment: as above
# Experimental: as §1
SMILES,"percentage damage caused to the plant, five point scale, LOLPE (Lolium perenne (LOLPE) [1])","percentage damage caused to the plant, five point scale, AVEFA (Avena fatua (AVEFA) [2])","percentage damage caused to the plant, five point scale, ECHCG [3]","percentage damage caused to the plant, five point scale, SETFA (Setaria faberi (SETFA) [4])","percentage damage caused to the plant, five point scale, LOLPE (Lolium perenne (LOLPE) [5])","percentage damage caused to the plant, five point scale, AVEFA (Avena fatua (AVEFA) [6])","percentage damage caused to the plant, five point scale, ECHCG [7]","percentage damage caused to the plant, five point scale, SETFA (Setaria faberi (SETFA) [8])"
"CC#Cc1cc(C)c(C2C(=O)CC3(CC2=O)CN(C(=O)C2CC2)C3)c(C)c1 [Compound 1.008, 2-(cyclopropanecarbonyl)-7-(2,6-dimethyl-4-prop-1-ynyl-phenyl)-2-azaspiro[3.5]nonane-6,8-dione]",5 (5=80-100%),5 (5=80-100%),5 (5=80-100%),5 (5=80-100%),5 (5=80-100%),5 (5=80-100%),5 (5=80-100%),5 (5=80-100%)
CC#Cc1cc(C)c(C2C(=O)CC3(CC2=O)CN(C(=O)C(F)F)C3)c(C)c1 [Compound 1.009],5 (5=80-100%),5 (5=80-100%),5 (5=80-100%),5 (5=80-100%),5 (5=80-100%),5 (5=80-100%),5 (5=80-100%),5 (5=80-100%)
CC#Cc1cc(C)c(C2C(=O)CC3(CC2=O)CN(C(=O)C(C)(C)C)C3)c(C)c1 [Compound 1.010],5 (5=80-100%),5 (5=80-100%),5 (5=80-100%),5 (5=80-100%),5 (5=80-100%),5 (5=80-100%),5 (5=80-100%),5 (5=80-100%)
CC#Cc1cc(C)c(C2C(=O)CC3(CC2=O)CN(C(=O)NC(=O)c2ccccn2)C3)c(C)c1 [Compound 1.011],2 (2=20-39%),1 (1=0-19%),2 (2=20-39%),3 (3=40-59%),3 (3=40-59%),3 (3=40-59%),3 (3=40-59%),5 (5=80-100%)
CC#Cc1cc(C)c(C2C(=O)CC3(CC2=O)CN(C(=O)CC#N)C3)c(C)c1 [Compound 1.012],5 (5=80-100%),5 (5=80-100%),5 (5=80-100%),5 (5=80-100%),5 (5=80-100%),4 (4=60-79%),5 (5=80-100%),5 (5=80-100%)
CC#Cc1cc(C)c(C2C(=O)CC3(CC2=O)CN(C(C)=O)C3)c(OC)c1 [Compound 1.013],5 (5=80-100%),5 (5=80-100%),5 (5=80-100%),5 (5=80-100%),5 (5=80-100%),5 (5=80-100%),5 (5=80-100%),5 (5=80-100%)
CC#Cc1cc(C)c(C2C(=O)CC3(CC2=O)CN(S(=O)(=O)CC)C3)c(OC)c1 [Compound 1.014],5 (5=80-100%),5 (5=80-100%),5 (5=80-100%),5 (5=80-100%),5 (5=80-100%),5 (5=80-100%),5 (5=80-100%),5 (5=80-100%)
CC#Cc1cc(C)c(C2C(=O)CC3(CC2=O)CN(C(=O)c2ccccc2)C3)c(OC)c1 [Compound 1.015],5 (5=80-100%),5 (5=80-100%),5 (5=80-100%),5 (5=80-100%),5 (5=80-100%),5 (5=80-100%),5 (5=80-100%),5 (5=80-100%)
CC#Cc1cc(C)c(C2C(=O)CC3(CC2=O)CN(C(=O)c2ccccn2)C3)c(OC)c1 [Compound 1.016],5 (5=80-100%),5 (5=80-100%),5 (5=80-100%),5 (5=80-100%),5 (5=80-100%),5 (5=80-100%),5 (5=80-100%),5 (5=80-100%)
CC#Cc1cc(C)c(C2C(=O)CC3(CC2=O)CN(C(=O)COC)C3)c(OC)c1 [Compound 1.017],5 (5=80-100%),5 (5=80-100%),5 (5=80-100%),5 (5=80-100%),5 (5=80-100%),5 (5=80-100%),4 (4=60-79%),5 (5=80-100%)
CC#Cc1cc(C)c(C2C(=O)CC3(CC2=O)CN(C(=O)NC(C)(C)C)C3)c(OC)c1 [Compound 1.018],5 (5=80-100%),5 (5=80-100%),5 (5=80-100%),5 (5=80-100%),5 (5=80-100%),5 (5=80-100%),5 (5=80-100%),5 (5=80-100%)
CC#Cc1cc(C)c(C2C(=O)CC3(CC2=O)CN(C(=O)NC(=O)C(C)(C)C)C3)c(OC)c1 [Compound 1.019],4 (4=60-79%),4 (4=60-79%),5 (5=80-100%),4 (4=60-79%),5 (5=80-100%),5 (5=80-100%),4 (4=60-79%),5 (5=80-100%)
CC#Cc1cc(C)c(C2C(=O)CC3(CC2=O)CN(C(=O)C2CC2)C3)c(OC)c1 [Compound 1.020],5 (5=80-100%),5 (5=80-100%),5 (5=80-100%),5 (5=80-100%),5 (5=80-100%),5 (5=80-100%),5 (5=80-100%),5 (5=80-100%)
CC#Cc1cc(C)c(C2C(=O)CC3(CC2=O)CN(C(=O)C(C)(C)C)C3)c(OC)c1 [Compound 1.021],5 (5=80-100%),5 (5=80-100%),5 (5=80-100%),5 (5=80-100%),5 (5=80-100%),5 (5=80-100%),5 (5=80-100%),5 (5=80-100%)
CC#Cc1cc(C)c(C2C(=O)CC3(CC2=O)CN(C(=O)NC(=O)c2ccccn2)C3)c(OC)c1 [Compound 1.022],3 (3=40-59%),2 (2=20-39%),4 (4=60-79%),5 (5=80-100%),5 (5=80-100%),5 (5=80-100%),5 (5=80-100%),5 (5=80-100%)
